Consider twelve molecules from publication PMC11876007, “Design and Synthesis of Hydroxamate-Based Matrix Metalloproteinase-2 Inhibitors for Anti-Photoaging” (Journal of Microbiology and Biotechnology, 2025).

A word on the IC50: it is the point on the concentration scale where inhibition reaches its midpoint.

Each structure is given as a SMILES string. “And” between values parts separate entries of the source, which are not always exact repeats. Identical values can stand only once. “Also recorded” adds a separate entry of the source.

The target in one assay is T1, MMP-1 (Homo sapiens, UniProt P03956).
T1 construct: purchased Abcam ab139443
T1 sequence (P03956 100-269 limits assumed): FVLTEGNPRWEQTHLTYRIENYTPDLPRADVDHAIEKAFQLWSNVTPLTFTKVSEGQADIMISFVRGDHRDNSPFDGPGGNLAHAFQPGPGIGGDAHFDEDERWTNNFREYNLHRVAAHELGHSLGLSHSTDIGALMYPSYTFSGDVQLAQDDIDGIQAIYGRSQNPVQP
Briefly: In vitro MMP-1 inhibition assay (Abcam kit ab139443). The assay is classed as biochemical. The following applies: for MMP-1 inhibition (in words): 500 nM, Fig. 3A. The procedure: (§1) Test inhibitors were incubated with MMP enzymes and assay buffer at 37 °C for 30 min. Enzyme reaction was initiated by adding substrate, and MMP activity was measured by monitoring optical density (OD) at 412 nm for 20 min at 1-min intervals. The residual activity (%) was calculated as: residual activity = (Vinhibitor/Vcontrol) × 100. The reaction velocity (V) in OD/min were determined by the slope of a line fit to the linear portion of the measured values.

A further assay has as its target T2, MMP-9 (Homo sapiens, UniProt P14780).
T2 construct: endogenous in cells; host or cells: HaCaT keratinocytes (conditioned medium)
Briefly: Zymogram assay, MMP-9 in HaCaT cell conditioned media. To be noted: keratinocyte-conditioned media; 50 nM developing phase and 500 nM 48 h, Fig. 4B and 4D. The assay is classed as biochemical.

The test system of the next assay is NHF cells. Briefly: Gelatin degradation assay (fluorescent gelatin, NHF cells). The assay is classed as cell-based, human. The following applies: 1 μM, four days, fluorescent-gelatin-coated plates. Here is the method:
Gelatin digestion was assessed using the QCM™ Gelatin Invadopodia Assay (#ECM670) (Sigma-Aldrich, USA). Plates were first coated with poly-L-lysine, activated with glutaraldehyde, and then coated with fluorescein-labelled gelatin. NHF cells were seeded onto the fluorescent gelatin-coated plates and incubated for 4 days. After incubation, the cells were fixed with formaldehyde and stained with DAPI for normalization based on cell number. Fluorescent gelatin levels were measured by detecting fluorescent intensity at an excitation wavelength of 492 nm and an emission wavelength of 518 nm using a Bio Tek Synergy H1 fluorescence reader (Agilent Technologies, USA). The residual gelatin (RG) was calculated by subtracting the fluorescent value of the wells with seeded cells from the values of wells without cells. This was normalized using the DAPI fluorescence to account for cell numbers per well. Gelatin degradation (%) was determined as: Gelatin degradation = (RGinhibitor/RGcontrol) × 100.

In the next assay the target is T3, MMP-2 (Homo sapiens, UniProt P08253).
T3 construct: purchased Abcam ab139446
Briefly: In vitro MMP-2 inhibition assay (Abcam kit ab139446). To be noted: for Selectivity of inhibition, MMP-2 over MMP-1 (in words): tested at 500 nM for MMP-1 and 50 nM for MMP-2; for IC50: apparent IC50, concentration-dependent inhibition, Fig. 2B; for MMP-2 inhibition (in words): 50 nM, Fig. 3A. The assay is classed as biochemical. The procedure: as §1

T3 sequence (P08253 110-465 limits assumed): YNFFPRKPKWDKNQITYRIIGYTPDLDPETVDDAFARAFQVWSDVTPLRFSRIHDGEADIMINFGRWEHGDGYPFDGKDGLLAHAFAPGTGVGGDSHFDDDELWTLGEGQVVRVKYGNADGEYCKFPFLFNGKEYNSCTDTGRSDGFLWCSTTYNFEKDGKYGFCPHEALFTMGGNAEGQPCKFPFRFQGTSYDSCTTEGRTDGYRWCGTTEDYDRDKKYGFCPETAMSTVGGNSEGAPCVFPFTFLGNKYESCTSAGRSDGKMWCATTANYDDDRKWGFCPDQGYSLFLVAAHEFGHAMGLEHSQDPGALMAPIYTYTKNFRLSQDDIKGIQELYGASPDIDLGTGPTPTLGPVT
T2 sequence (P14780 94-707): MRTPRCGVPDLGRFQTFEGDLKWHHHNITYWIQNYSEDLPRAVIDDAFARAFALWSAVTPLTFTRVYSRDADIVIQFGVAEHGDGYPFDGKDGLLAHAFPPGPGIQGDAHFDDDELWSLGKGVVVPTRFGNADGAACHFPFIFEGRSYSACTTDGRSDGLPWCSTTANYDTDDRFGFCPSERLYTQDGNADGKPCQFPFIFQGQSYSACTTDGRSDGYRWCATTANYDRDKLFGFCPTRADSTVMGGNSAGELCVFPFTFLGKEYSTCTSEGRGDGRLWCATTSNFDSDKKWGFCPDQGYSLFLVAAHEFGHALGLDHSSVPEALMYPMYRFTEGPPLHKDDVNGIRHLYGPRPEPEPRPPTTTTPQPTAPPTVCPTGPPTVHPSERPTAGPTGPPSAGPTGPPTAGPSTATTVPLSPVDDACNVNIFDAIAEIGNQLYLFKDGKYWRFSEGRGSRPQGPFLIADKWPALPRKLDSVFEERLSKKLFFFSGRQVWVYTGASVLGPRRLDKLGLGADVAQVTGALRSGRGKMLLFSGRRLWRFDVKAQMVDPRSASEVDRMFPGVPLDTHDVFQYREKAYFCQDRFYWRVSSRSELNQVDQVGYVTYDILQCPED

In the case of `O=C(NO)C1CCCCN1S(=O)(=O)c1ccccc1` (centres unmarked) [Compound 1ac, N-hydroxy-1-(phenylsulfonyl)piperidine-2-carboxamide], the “MMP-1 inhibition (in words)” value at MMP-1 is “maintained MMP-1 inhibition”.

As for `O=C(NO)C1CCCCN1S(=O)(=O)c1ccc(-c2ccccc2)cc1` (centres unmarked) [Compound 1ad, 1-([1,1'-biphenyl]-4-ylsulfonyl)-N-hydroxypiperidine-2-carboxamide], the “MMP-9 inhibition, zymogram (in words)” value on MMP-9 was “effectively inhibited both MMP-2 and MMP-9”. Besides, the “Gelatin degradation per cell (in words)” value in the assay with NHF cells is listed as “statistically significant reductions”.

In the case of `CCCCOc1ccc(S(=O)(=O)N2CCCCC2C(=O)NO)cc1` (centres unmarked) [Compound 1af, 1-((4-butoxyphenyl)sulfonyl)-N-hydroxypiperidine-2-carboxamide], the “MMP-9 inhibition, zymogram (in words)” value at MMP-9 was “effectively inhibited both MMP-2 and MMP-9”. Besides, the “Gelatin degradation per cell (in words)” value in the assay with NHF cells is reported as “statistically significant reductions”.

Take `Cc1ccc(S(=O)(=O)N2CCCCC2C(=O)NO)cc1` (centres unmarked) [Compound 1aj, N-hydroxy-1-tosylpiperidine-2-carboxamide]: the “Selectivity of inhibition, MMP-2 over MMP-1 (in words)” value (“Selectivity of inhibition” below) at MMP-2 is reported as “selective inhibition of MMP-2”.

In the case of `CC(C)C(NS(=O)(=O)c1ccc(-c2ccccc2)cc1)C(=O)NO` (centres unmarked) [Compound 1b, 2-([1,1'-biphenyl]-4-sulfonamido)-N-hydroxy-3-methylbutanamide], the “MMP-1 inhibition (in words)” value on MMP-1 was “weak MMP-1 inhibition”. In addition, the IC50 on MMP-1 (apparent IC50, concentration-dependent inhibition, Fig. 2B) was 188 nM. On MMP-2, the IC50 is 5.1 nM and < 10 nM; the “Selectivity of inhibition” value is given as “selectively inhibited MMP-2 over MMP-1”.

As for `CCCCOc1ccc(S(=O)(=O)NC(C(=O)NO)C(C)C)cc1` (centres unmarked) [Compound 1d, 2-((4-butoxyphenyl)sulfonamido)-N-hydroxy-3-methylbutanamide], on MMP-2, the IC50 was 8.1 nM and < 10 nM; the “Selectivity of inhibition” value was “selectively inhibited MMP-2 over MMP-1; also recorded: strong selectivity for MMP-2”.

For `CCCCOc1ccc(S(=O)(=O)NC(CC(C)C)C(=O)NO)cc1` (centres unmarked) [Compound 1j, 2-((4-butoxyphenyl)sulfonamido)-N-hydroxy-4-methylpentanamide], at MMP-2, the IC50 is 7.8 nM and < 10 nM; the “Selectivity of inhibition” value was “selectively inhibited MMP-2 over MMP-1; also recorded: strong selectivity for MMP-2”.

Turning to `O=C(NO)C(Cc1ccccc1)NS(=O)(=O)c1ccc(-c2ccccc2)cc1` (centres unmarked) [Compound 1n, 2-([1,1'-biphenyl]-4-sulfonamido)-N-hydroxy-3-phenylpropanamide], on MMP-2, the “MMP-2 inhibition (in words)” value is given as “lower inhibitory activity against MMP-2”.

In the case of `CCCCOc1ccc(S(=O)(=O)NC(Cc2ccccc2)C(=O)NO)cc1` (centres unmarked) [Compound 1p, 2-((4-butoxyphenyl)sulfonamido)-N-hydroxy-3-phenylpropanamide], the “MMP-2 inhibition (in words)” value on MMP-2 is recorded as “lower inhibitory activity against MMP-2”.

Turning to `O=C(NO)C1CCCN1S(=O)(=O)c1ccc(-c2ccccc2)cc1` (centres unmarked) [Compound 1t, 1-([1,1'-biphenyl]-4-ylsulfonyl)-N-hydroxypyrrolidine-2-carboxamide], the “MMP-1 inhibition (in words)” value on MMP-1 is “weaker MMP-1 inhibition”. Also, on MMP-2, the IC50 is 18.9 nM and the “Selectivity of inhibition” value is recorded as “selectively inhibited MMP-2 over MMP-1”.

Consider `CCCCOc1ccc(S(=O)(=O)N2CCCC2C(=O)NO)cc1` (centres unmarked) [Compound 1v, 1-((4-butoxyphenyl)sulfonyl)-N-hydroxypyrrolidine-2-carboxamide], for which, at MMP-2, the IC50 was 32.6 nM and the “Selectivity of inhibition” value was “selectively inhibited MMP-2 over MMP-1”.

In the case of `CC(=NO)c1ccc(S(=O)(=O)N2CCCCC2C(=O)NO)cc1` (centres unmarked) [Compound 4an, N-hydroxy-1-((4-(1-(hydroxyimino)ethyl)phenyl)sulfonyl)piperidine-2-carboxamide], at MMP-9, the “MMP-9 inhibition, zymogram (in words)” value is “effectively inhibited both MMP-2 and MMP-9”. The “Gelatin degradation per cell (in words)” value with NHF cells is given as “statistically significant reductions”.
